Consider three compounds from DBAASP.

≈ marks a conversion by molar mass, not a printed value. Where “and” joins values, the source holds several entries; their conditions need not be identical. Equal values may be shown once.

Common to all, as to assay: ≥ marks a high value that may be exact or a test limit, other limits are often not marked, values filed in µg/mL are converted to µM
Test [1] has as its system Acholeplasma laidlawii A-EF22.
Test [2] relates to Mycoplasma mycoides ssp. mycoides SC KH3J.
Test [3] deals with Spiroplasma citri R8A2.
The test system of test [4] is Spiroplasma floricola BNR 1.
Test [5] has as its system Spiroplasma melliferum BC3.
Test [6] concerns Acinetobacter calcoaceticus.
For test [7], the system named is Bacillus cereus ATCC 14579.
Test [8] relates to Bacillus subtilis ATCC 23857.
Test [9] has as its system Candida albicans ATCC 1023.
For test [10], the system named is Candida albicans ATCC 90028.
In test [11] the test system is Candida albicans.
Test [12] relates to Candida tropicalis.
In test [13] the test system is Cryptococcus neoformans ATCC 28957.
Test [14] concerns Escherichia coli.
The subject of test [15] is Fusarium oxysporum.
The test system of test [16] is Fusarium solani.
Test [17] has as its system Pectobacterium carotovorum.
The test system of test [18] is Pseudomonas syringae pv. tabaci.
Test [19] has as its system Ramulariopsis gossypii.
Test [20] concerns Rhizoctonia solani.
Test [21] relates to Staphylococcus aureus ATCC 25923.
The subject of test [22] is Staphylococcus aureus ATCC 29313.
For test [23], the system named is Staphylococcus aureus.
The subject of test [24] is Streptococcus dysgalactiae.
Test [25] has as its system Streptococcus uberis.
Test [26] concerns Trichoderma asperellum.
In test [27] the test system is Xanthomonas axonopodis pv. glycines ISBF 327.
Test [28] concerns Xanthomonas campestris pv. citri.
Test [29] has as its system Bacillus subtilis ATCC 6633.
Test [30] deals with Candida albicans ATCC 90112.
Test [31] deals with Escherichia coli ATCC 25922.
The test system of test [32] is Micrococcus luteus ATCC 10240.
Test [33] has as its system Proteus mirabilis.
Test [34] relates to Pseudomonas aeruginosa ATCC 27853.
Test [35] deals with Staphylococcus epidermidis.
Test [36] concerns Stenotrophomonas maltophilia ATCC 13637.
Test [37] concerns Streptococcus pyogenes.

As for `CC(C)C[C@H](NC(=O)[C@H](CCCCN)NC(=O)[C@H](CC(C)C)NC(=O)[C@H](CC(C)C)NC(=O)[C@H](CC(C)C)NC(=O)[C@H](CCCCN)NC(=O)[C@H](CC(C)C)NC(=O)[C@H](CC(C)C)NC(=O)[C@H](CC(C)C)NC(=O)[C@H](CCCCN)NC(=O)[C@H](CC(C)C)NC(=O)[C@H](CC(C)C)NC(=O)[C@@H](N)CCCCN)C(=O)N[C@@H](Cc1c[nH]c2ccccc12)C(=O)N[C@@H](CCCCN)C(=O)O` [KLLKLLLKLLLKLWK], the MIC (usually the least concentration at which growth counts as inhibited) came to 1.56 µM (≈ 2.91 µg/mL) in test [1]; 6.25 µM (≈ 11.6 µg/mL) in [2]; 6.25 µM (≈ 11.6 µg/mL) in test [3]; 6.25 µM (≈ 11.6 µg/mL) in [4]; 6.25 µM (≈ 11.6 µg/mL) in [5].
`CC[C@H](C)[C@H](NC(=O)[C@H](C)NC(=O)[C@H](C)NC(=O)[C@H](CCC(=O)O)NC(=O)[C@H](CCCCN)NC(=O)CNC(=O)[C@H](CCCCN)NC(=O)[C@H](CCC(N)=O)NC(=O)[C@H](CCCCN)NC(=O)[C@@H](NC(=O)[C@@H](NC(=O)[C@H](CO)NC(=O)[C@H](Cc1c[nH]c2ccccc12)NC(=O)[C@H](CC(C)C)NC(=O)CN)[C@@H](C)O)[C@@H](C)CC)C(=O)N[C@@H](C)C(=O)N[C@@H](C)C(=O)N[C@@H](C)C(=O)N[C@@H](CCCCN)C(=O)N[C@@H](C)C(=O)N[C@@H](C)C(=O)NCC(=O)N[C@@H](CCC(N)=O)C(=O)N[C@@H](C)C(=O)N[C@@H](C)C(=O)N[C@@H](CC(C)C)C(=O)NCC(=O)N[C@@H](C)C(=O)N[C@@H](CC(C)C)C(N)=O` [GLWSTIKQKGKEAAIAAAKAAGQAALGAL]: the MIC is 25.7 µM (≈ 71.7 µg/mL) in test [6]; 16 µM (≈ 44.7 µg/mL) in test [7]; 1 µM (≈ 2.79 µg/mL) in [8]; 5.7 µM (≈ 15.9 µg/mL) in [9]; 4 µM (≈ 11.2 µg/mL) in test [10]; 5.7 µM (≈ 15.9 µg/mL) in test [11]. Further, the MIC was determined as 0.37 µM (≈ 1.03 µg/mL) in test [12]; 8 µM (≈ 22.4 µg/mL) in test [13]; 6.42 µM (≈ 17.9 µg/mL) in test [14]; 16 µM (≈ 44.7 µg/mL) in test [15]; 16 µM (≈ 44.7 µg/mL) in test [16]; 0.5 µM (≈ 1.4 µg/mL) in test [17]. For the same compound, the MIC in [18] is 1 µM (≈ 2.79 µg/mL); in test [19], 8 µM (≈ 22.4 µg/mL); in [20] it was no less than 64 µM; in [21], 3.2 µM and 8 µM; in [22], 11 µM (≈ 30.7 µg/mL); in test [23] it was 12.8 µM and 5.7 µM. In addition, the MIC was determined as 5.7 µM (≈ 15.9 µg/mL) in [24]; 5.7 µM (≈ 15.9 µg/mL) in test [25]; 8 µM (≈ 22.4 µg/mL) in [26]; 1 µM (≈ 2.79 µg/mL) in [27]; 0.5 µM (≈ 1.4 µg/mL) in test [28].
As to `CC[C@H](C)[C@H](NC(=O)CNC(=O)[C@H](CCSC)NC(=O)[C@@H](NC(=O)[C@H](CC(=O)O)NC(=O)[C@@H](N)Cc1ccccc1)C(C)C)C(=O)N[C@H](C(=O)N[C@@H](CCCCN)C(=O)N[C@@H](CCCCN)C(=O)N[C@H](C(=O)N[C@@H](C)C(=O)N[C@@H](CO)C(=O)N[C@@H](C)C(=O)N[C@@H](CC(C)C)C(N)=O)[C@@H](C)CC)[C@@H](C)CC` [FDVMGIIKKIASAL], the MIC in [29] was 30 µM (≈ 45.1 µg/mL); in test [30] it was 7.5 µM (≈ 11.3 µg/mL); in test [31], 30 µM (≈ 45.1 µg/mL); in [32] it was 30 µM (≈ 45.1 µg/mL); in test [33], no less than 60 µM; in test [34], greater than 30 µM. For the same compound, the MIC in test [21], in test [35], in test [36] and in test [37] was 30 µM (≈ 45.1 µg/mL) throughout.
